# Like-named read-outs stand apart in the source and are kept apart here.
# Tested on: Stat3-ER expressing A375 cells
# Format: cell-based
# Experimental: In order to understand Stat3's ability to affect cell proliferation and cell death, we have examined the profile of genes expressed upon Stat3 activation in A375 cells using oligonucleotide microarrays.
# Briefly, microarray analysis was performed using HG U95A GeneChips™ (Affymetrix, Santa Clara, USA) essentially according to the manufacturer's instructions. […] RNA from three independent experiments was pooled and biotin-labeled cRNA probes were generated from each sample starting from 10 μg of total cellular RNA. The resulting biotinylated cRNAs were hybridized to the Affymetrix U95A oligonucleotide array containing more than 12,000 sequences and signals detected. Chip analysis was performed using the Affymetrix Microarray Suite v5 (target intensity 500 used for chip scaling) and GeneSpring 4.2.1 (Silicon Genetics). Changes in gene expression were assessed by looking for concordant changes between replicates using a signed Wilcoxon rank test (as recommended by Affymetrix).
compound,measurement,setting,value
"CCC(=C(c1ccc(O)cc1)c1ccc(OCCN(C)C)cc1)c1ccccc1 [4HT, 4-hydroxytamoxifen, reference compound]",expression change (fold): Absent in melanoma 2,Avge of clones,2.1
same,expression change (fold): Alpha-1-antichymotrypsin precursor,Avge of clones,2.5
same,expression change (fold): Aquaporin 3,Avge of clones,5.2
same,expression change (fold): Brain-derived neurotrophic factor,Avge of clones,6.3
same,"expression change (fold): CCAAT/enhancer binding protein (C/EBP), delta",Avge of clones,4.6
same,expression change (fold): Cathepsin L,Avge of clones,3.7
same,expression change (fold): Cytokine receptor-like factor 1,Avge of clones,4.8
same,expression change (fold): Death-associated protein kinase 1,Avge of clones,5.3
same,expression change (fold): Ephrin A1 precursor,Avge of clones,4.0
same,expression change (fold): Ets variant gene 6,Avge of clones,4.2
same,expression change (fold): Fibronectin,Avge of clones,4.5
same,"expression change (fold): Fibronectin 1, isoform 1 preproprotein",Avge of clones,5.2
same,"expression change (fold): Glycine dehydrogenase (decarboxylating, glycine decdarboxylase, glycine cleavage system protein P)",Avge of clones,1.7
same,expression change (fold): H. sapiens mRNA; cDNA DZFZp586N012,Avge of clones,2.3
same,expression change (fold): I factor (complement),Avge of clones,2.9
same,expression change (fold): Insulin-like growth factor binding protein 3,Avge of clones,3.9
same,expression change (fold): Intercellular adhesion molecule 1 precursor,Avge of clones,2.4
same,expression change (fold): Interferon induced transmembrane protein 1 (9-27),Avge of clones,2.8
same,expression change (fold): Interleukin 8,Avge of clones,4.9
same,expression change (fold): Jun B proto-oncogene,Avge of clones,3.0
same,expression change (fold): KIAA0161 gene product,Avge of clones,2.4
same,expression change (fold): KIAA0303 protein,Avge of clones,2.9
same,expression change (fold): KIAA0500 protein,Avge of clones,4.2
same,"expression change (fold): Killer cell lectin-like receptor subfamily C, member 2",Avge of clones,6.1
same,"expression change (fold): Killer cell lectin-like receptor subfamily C, member 3 isoform NKG2-E",Avge of clones,10.3
same,expression change (fold): Kynureninase (L-kynurenine hydrolase),Avge of clones,3.6
same,expression change (fold): Major vault protein,Avge of clones,2.8
same,expression change (fold): Nicotinamide N-methyltransferase,Avge of clones,2.6
same,"expression change (fold): Niemann-Pick disease, type C1",Avge of clones,2.2
same,expression change (fold): Oncostatin M receptor,Avge of clones,3.3
same,expression change (fold): Osteoprotegrin,Avge of clones,8.6
same,expression change (fold): Prostatic acid phosphatase precursor,Avge of clones,10.5
same,expression change (fold): Ras-induced senescence 1,Avge of clones,2.4
same,"expression change (fold): Regenerating islet-derived 1 alpha (pancreatic stone protein, pancreatic thread protein)",Avge of clones,4.0
same,expression change (fold): Regulator of G protein signalling 16,Avge of clones,5.3
same,expression change (fold): STAT induced STAT inhibitor 3,Avge of clones,9.9
same,"expression change (fold): Secreted phosphoprotein 1 (osteopontin, bone sialoprotein 1, early T-lymphocyte activation 1)",Avge of clones,25.5
same,"expression change (fold): Serine (or cysteine) protease inhibitor, clade B (ovalbumin), member 3",Avge of clones,100.2
same,expression change (fold): Small inducible cytokine A2 (monocyte chemotactic protein 1),Avge of clones,2.4
same,"expression change (fold): Solute carrier family 2 (facilitated glucose transporter), member 3",Avge of clones,2.6
same,expression change (fold): Stanniocalcin 1,Avge of clones,6.7
same,expression change (fold): Tyrosine phosphatase/TIGR = HG620-HT620,Avge of clones,2.2
same,expression change (fold): v-fos FBJ murine osteosarcoma viral gene homologue,Avge of clones,3.9
same,expression change (fold): v-jun avian sarcoma virus 17 oncogene homologue,Avge of clones,4.9
same,expression change (fold): v-maf musculoaponeurotic fibrosarcoma oncogene homologue (avian),Avge of clones,1.6
same,expression change (fold): Aquaporin 3,"Avge of clones, 2nd listing",4.4
same,"expression change (fold): Fibronectin 1, isoform 1 preproprotein","Avge of clones, 2nd listing",5.0
same,expression change (fold): Insulin-like growth factor binding protein 3,"Avge of clones, 2nd listing",3.1
same,expression change (fold): Interleukin 8,"Avge of clones, 2nd listing",2.6
same,expression change (fold): Kynureninase (L-kynurenine hydrolase),"Avge of clones, 2nd listing",3.3
same,expression change (fold): Oncostatin M receptor,"Avge of clones, 2nd listing",3.3
same,expression change (fold): Prostatic acid phosphatase precursor,"Avge of clones, 2nd listing",2.8
same,"expression change (fold): Secreted phosphoprotein 1 (osteopontin, bone sialoprotein 1, early T-lymphocyte activation 1)","Avge of clones, 2nd listing",18.4
same,expression change (fold): v-jun avian sarcoma virus 17 oncogene homologue,"Avge of clones, 2nd listing",4.3
same,expression change (fold): Kynureninase (L-kynurenine hydrolase),"Avge of clones, 3rd listing",2.9
same,expression change (fold): Absent in melanoma 2,Clone1,2.2
same,expression change (fold): Alpha-1-antichymotrypsin precursor,Clone1,2.7
same,expression change (fold): Aquaporin 3,Clone1,5.2
same,expression change (fold): Brain-derived neurotrophic factor,Clone1,8.9
same,"expression change (fold): CCAAT/enhancer binding protein (C/EBP), delta",Clone1,5.6
same,expression change (fold): Cathepsin L,Clone1,3.6
same,expression change (fold): Cytokine receptor-like factor 1,Clone1,5.2
same,expression change (fold): Death-associated protein kinase 1,Clone1,5.7
same,expression change (fold): Ephrin A1 precursor,Clone1,2.8
same,expression change (fold): Ets variant gene 6,Clone1,3.9
same,expression change (fold): Fibronectin,Clone1,4.3
same,"expression change (fold): Fibronectin 1, isoform 1 preproprotein",Clone1,7.7
same,"expression change (fold): Glycine dehydrogenase (decarboxylating, glycine decdarboxylase, glycine cleavage system protein P)",Clone1,1.8
same,expression change (fold): H. sapiens mRNA; cDNA DZFZp586N012,Clone1,2.6
same,expression change (fold): I factor (complement),Clone1,3.8
same,expression change (fold): Insulin-like growth factor binding protein 3,Clone1,2.5
same,expression change (fold): Intercellular adhesion molecule 1 precursor,Clone1,2.8
same,expression change (fold): Interferon induced transmembrane protein 1 (9-27),Clone1,3.1
same,expression change (fold): Interleukin 8,Clone1,2.3
same,expression change (fold): Jun B proto-oncogene,Clone1,3.3
same,expression change (fold): KIAA0161 gene product,Clone1,2.5
same,expression change (fold): KIAA0303 protein,Clone1,4.2
same,expression change (fold): KIAA0500 protein,Clone1,1.6
same,"expression change (fold): Killer cell lectin-like receptor subfamily C, member 2",Clone1,9.5
same,"expression change (fold): Killer cell lectin-like receptor subfamily C, member 3 isoform NKG2-E",Clone1,18.4
same,expression change (fold): Kynureninase (L-kynurenine hydrolase),Clone1,4.0
same,expression change (fold): Major vault protein,Clone1,3.6
same,expression change (fold): Nicotinamide N-methyltransferase,Clone1,2.7
same,"expression change (fold): Niemann-Pick disease, type C1",Clone1,2.3
same,expression change (fold): Oncostatin M receptor,Clone1,4.3
same,expression change (fold): Osteoprotegrin,Clone1,12.9
same,expression change (fold): Prostatic acid phosphatase precursor,Clone1,9.3
same,expression change (fold): Ras-induced senescence 1,Clone1,2.4
same,"expression change (fold): Regenerating islet-derived 1 alpha (pancreatic stone protein, pancreatic thread protein)",Clone1,4.7
same,expression change (fold): Regulator of G protein signalling 16,Clone1,6.9
same,expression change (fold): STAT induced STAT inhibitor 3,Clone1,9.2
same,"expression change (fold): Secreted phosphoprotein 1 (osteopontin, bone sialoprotein 1, early T-lymphocyte activation 1)",Clone1,10.8
same,"expression change (fold): Serine (or cysteine) protease inhibitor, clade B (ovalbumin), member 3",Clone1,103.0
same,expression change (fold): Small inducible cytokine A2 (monocyte chemotactic protein 1),Clone1,2.8
same,"expression change (fold): Solute carrier family 2 (facilitated glucose transporter), member 3",Clone1,2.9
same,expression change (fold): Stanniocalcin 1,Clone1,5.2
same,expression change (fold): Tyrosine phosphatase/TIGR = HG620-HT620,Clone1,2.3
same,expression change (fold): v-fos FBJ murine osteosarcoma viral gene homologue,Clone1,3.6
same,expression change (fold): v-jun avian sarcoma virus 17 oncogene homologue,Clone1,3.6
same,expression change (fold): v-maf musculoaponeurotic fibrosarcoma oncogene homologue (avian),Clone1,1.2
same,expression change (fold): Aquaporin 3,"Clone1, 2nd listing",5.7
same,"expression change (fold): Fibronectin 1, isoform 1 preproprotein","Clone1, 2nd listing",6.8
same,expression change (fold): Insulin-like growth factor binding protein 3,"Clone1, 2nd listing",2.3
same,expression change (fold): Interleukin 8,"Clone1, 2nd listing",2.9
same,expression change (fold): Kynureninase (L-kynurenine hydrolase),"Clone1, 2nd listing",4.3
same,expression change (fold): Oncostatin M receptor,"Clone1, 2nd listing",4.2
same,expression change (fold): Prostatic acid phosphatase precursor,"Clone1, 2nd listing",3.3
same,"expression change (fold): Secreted phosphoprotein 1 (osteopontin, bone sialoprotein 1, early T-lymphocyte activation 1)","Clone1, 2nd listing",16.9
same,expression change (fold): v-jun avian sarcoma virus 17 oncogene homologue,"Clone1, 2nd listing",5.6
same,expression change (fold): Kynureninase (L-kynurenine hydrolase),"Clone1, 3rd listing",3.9
same,expression change (fold): Absent in melanoma 2,Clone2,2.0
same,expression change (fold): Alpha-1-antichymotrypsin precursor,Clone2,2.3
same,expression change (fold): Aquaporin 3,Clone2,5.1
same,expression change (fold): Brain-derived neurotrophic factor,Clone2,3.6
same,"expression change (fold): CCAAT/enhancer binding protein (C/EBP), delta",Clone2,3.7
same,expression change (fold): Cathepsin L,Clone2,3.8
same,expression change (fold): Cytokine receptor-like factor 1,Clone2,4.3
same,expression change (fold): Death-associated protein kinase 1,Clone2,4.8
same,expression change (fold): Ephrin A1 precursor,Clone2,5.2
same,expression change (fold): Ets variant gene 6,Clone2,4.5
same,expression change (fold): Fibronectin,Clone2,4.6
same,"expression change (fold): Fibronectin 1, isoform 1 preproprotein",Clone2,2.6
same,"expression change (fold): Glycine dehydrogenase (decarboxylating, glycine decdarboxylase, glycine cleavage system protein P)",Clone2,1.6
same,expression change (fold): H. sapiens mRNA; cDNA DZFZp586N012,Clone2,2.0
same,expression change (fold): I factor (complement),Clone2,2.0
same,expression change (fold): Insulin-like growth factor binding protein 3,Clone2,5.4
same,expression change (fold): Intercellular adhesion molecule 1 precursor,Clone2,2.1
same,expression change (fold): Interferon induced transmembrane protein 1 (9-27),Clone2,2.5
same,expression change (fold): Interleukin 8,Clone2,7.4
same,expression change (fold): Jun B proto-oncogene,Clone2,2.6
same,expression change (fold): KIAA0161 gene product,Clone2,2.4
same,expression change (fold): KIAA0303 protein,Clone2,1.7
same,expression change (fold): KIAA0500 protein,Clone2,6.7
same,"expression change (fold): Killer cell lectin-like receptor subfamily C, member 2",Clone2,2.7
same,"expression change (fold): Killer cell lectin-like receptor subfamily C, member 3 isoform NKG2-E",Clone2,2.2
same,expression change (fold): Kynureninase (L-kynurenine hydrolase),Clone2,3.2
same,expression change (fold): Major vault protein,Clone2,2.0
same,expression change (fold): Nicotinamide N-methyltransferase,Clone2,2.5
same,"expression change (fold): Niemann-Pick disease, type C1",Clone2,2.2
same,expression change (fold): Oncostatin M receptor,Clone2,2.4
same,expression change (fold): Osteoprotegrin,Clone2,4.4
same,expression change (fold): Prostatic acid phosphatase precursor,Clone2,11.7
same,expression change (fold): Ras-induced senescence 1,Clone2,2.5
same,"expression change (fold): Regenerating islet-derived 1 alpha (pancreatic stone protein, pancreatic thread protein)",Clone2,3.4
same,expression change (fold): Regulator of G protein signalling 16,Clone2,3.7
same,expression change (fold): STAT induced STAT inhibitor 3,Clone2,10.5
same,"expression change (fold): Secreted phosphoprotein 1 (osteopontin, bone sialoprotein 1, early T-lymphocyte activation 1)",Clone2,40.1
same,"expression change (fold): Serine (or cysteine) protease inhibitor, clade B (ovalbumin), member 3",Clone2,97.5
same,expression change (fold): Small inducible cytokine A2 (monocyte chemotactic protein 1),Clone2,2.0
same,"expression change (fold): Solute carrier family 2 (facilitated glucose transporter), member 3",Clone2,2.3
same,expression change (fold): Stanniocalcin 1,Clone2,8.3
same,expression change (fold): Tyrosine phosphatase/TIGR = HG620-HT620,Clone2,2.1
same,expression change (fold): v-fos FBJ murine osteosarcoma viral gene homologue,Clone2,4.1
same,expression change (fold): v-jun avian sarcoma virus 17 oncogene homologue,Clone2,6.3
same,expression change (fold): v-maf musculoaponeurotic fibrosarcoma oncogene homologue (avian),Clone2,2.0
same,expression change (fold): Aquaporin 3,"Clone2, 2nd listing",3.2
same,"expression change (fold): Fibronectin 1, isoform 1 preproprotein","Clone2, 2nd listing",3.3
same,expression change (fold): Insulin-like growth factor binding protein 3,"Clone2, 2nd listing",3.9
same,expression change (fold): Interleukin 8,"Clone2, 2nd listing",2.2
same,expression change (fold): Kynureninase (L-kynurenine hydrolase),"Clone2, 2nd listing",2.4
same,expression change (fold): Oncostatin M receptor,"Clone2, 2nd listing",2.5
same,expression change (fold): Prostatic acid phosphatase precursor,"Clone2, 2nd listing",2.4
same,"expression change (fold): Secreted phosphoprotein 1 (osteopontin, bone sialoprotein 1, early T-lymphocyte activation 1)","Clone2, 2nd listing",20.0
same,expression change (fold): v-jun avian sarcoma virus 17 oncogene homologue,"Clone2, 2nd listing",3.1
same,expression change (fold): Kynureninase (L-kynurenine hydrolase),"Clone2, 3rd listing",2.0
same,number of genes significantly decreased,after 24 hrs of treatment,23 genes
same,number of genes significantly increased,after 24 hrs of treatment,154 genes
same,number of genes upregulated more than two-fold,after 24 hrs of treatment,39 genes
same,SOCS3 expression,as early as 1 hr after treatment,rapidly increased

# From patent US20080064027A1, “TEL/Etv6-mediated inhibition of cell proliferation” (priority 2002, published 2008)
